Assay results as given in patent publication EP2003129B1, “1H-Pyrido[3,4-B]indol-1-one and 2,3,4,9-Tetrahydro-1H-Beta-Carbolin-1-one Derivatives” (Nerviano Medical Sciences S.r.l., priority 2007, dated 2008).
pIC50: −log10 of the molar value.

Assays:
A2780 = experiment: Cytotoxic activity on cells (cell proliferation, cellular ATP monitoring); assay type: cell-based; conditions: Homo sapiens; Cell Type A2780; concentration inhibiting cell proliferation by 50%; 72 hours treatment
Procedure: Exponentially growing cells A2780 were seeded and incubated at 37°C in a humidified 5% CO2 atmosphere. After 24 hours, scalar doses of test compound were added to the medium and cells were incubated for additional 72 hours.
At the end of treatment, cell proliferation was determined by a cellular ATP monitoring system which consists of a mixture of luciferase and luciferin, reconstituted in a lysis buffer; 100 µL/well of this solution were added to the cells. The plates were then shaken for 2 minutes in an orbital shaker and were read in a luminometer, with the signal linearly proportional to the cell number.

PKAalpha = PKAalpha (Homo sapiens, UniProt P17612); experiment: Enzyme inhibition activity, PKAalpha; assay type: biochemical
Procedure: (§1) Operating as described above in the tests of inhibition activity on enzymes, or in an analogous way, the following data were obtained for 2-methyl-N-{4-[2-(methylamino)-2-oxoethyl]-1-oxo-2,9-dihydro-1H-beta-carbolin-6-yl}hexanamide (Compound XIIIh). The same compound was tested for cytotoxic activity on cells as described below.

AUR2 = target: T1, AUR2 (Homo sapiens, UniProt O14965); experiment: Inhibition assay of Aurora-2 activity; assay type: biochemical; conditions: Enzyme AUR2
T1 sequence (O14965 1-403): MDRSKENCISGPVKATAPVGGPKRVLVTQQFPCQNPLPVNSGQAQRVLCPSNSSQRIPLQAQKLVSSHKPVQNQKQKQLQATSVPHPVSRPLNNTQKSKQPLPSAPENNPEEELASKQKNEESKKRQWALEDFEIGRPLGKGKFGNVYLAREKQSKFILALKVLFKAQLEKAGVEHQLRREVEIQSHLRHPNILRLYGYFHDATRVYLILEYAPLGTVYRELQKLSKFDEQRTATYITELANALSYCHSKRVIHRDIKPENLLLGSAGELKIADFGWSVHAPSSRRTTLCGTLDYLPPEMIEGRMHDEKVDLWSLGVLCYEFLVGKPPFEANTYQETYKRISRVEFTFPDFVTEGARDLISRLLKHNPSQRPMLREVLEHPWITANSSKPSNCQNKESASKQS
Procedure: Inhibition assay of Aurora-2 activity
The inhibiting activity and the potency of selected compounds was determined through a method of assay based on the use of the streptavidin scintillation proximity assay beads (amershampharmacia biotech) run in a 96 well plates. At the end of the reaction, the biotinylated peptide substrate was captured with the beads and subsequently allowed to stratify using CsCl. When a radioactivity labeled phosphate moiety was transferred by the kinase to the beads-bound peptide, light emitted was measured in a scintillation counter.
The inhibition assay of Aurora-2 activity was performed in 96 wells plate according to the following protocol:
8 µM biotinylated peptide (4 repeats of LRRWSLG), 10 µM ATP (0.5 uCi P^33g-ATP), 10 nM Aurora2, 10 µM inhibitor in a final volume of 60 µl buffer (HEPES 50 mM pH 7.0, MgCl2 10 mM, 1 mM DTT, 0.125 mg/ml BSA, 3µM orthovanadate) were added to each well of a 96 U bottom well plate. After 30 minutes at room temperature incubation, reaction was stopped and biotinylated peptide captured by adding 100 µl of bead suspension.
100 µl of CsCl 7.5 M were added to each well and let stand one hour before radioactivity was counted in the Top-Count instrument.
Results: data were analyzed and expressed as % inhibition referred to total activity of enzyme (=100%). […]

VEGFR3 = VEGFR3 (Homo sapiens, UniProt P35916); experiment: Enzyme inhibition activity, VEGFR3; assay type: biochemical
VEGFR3, sequence (P35916 25-1363, species assumed): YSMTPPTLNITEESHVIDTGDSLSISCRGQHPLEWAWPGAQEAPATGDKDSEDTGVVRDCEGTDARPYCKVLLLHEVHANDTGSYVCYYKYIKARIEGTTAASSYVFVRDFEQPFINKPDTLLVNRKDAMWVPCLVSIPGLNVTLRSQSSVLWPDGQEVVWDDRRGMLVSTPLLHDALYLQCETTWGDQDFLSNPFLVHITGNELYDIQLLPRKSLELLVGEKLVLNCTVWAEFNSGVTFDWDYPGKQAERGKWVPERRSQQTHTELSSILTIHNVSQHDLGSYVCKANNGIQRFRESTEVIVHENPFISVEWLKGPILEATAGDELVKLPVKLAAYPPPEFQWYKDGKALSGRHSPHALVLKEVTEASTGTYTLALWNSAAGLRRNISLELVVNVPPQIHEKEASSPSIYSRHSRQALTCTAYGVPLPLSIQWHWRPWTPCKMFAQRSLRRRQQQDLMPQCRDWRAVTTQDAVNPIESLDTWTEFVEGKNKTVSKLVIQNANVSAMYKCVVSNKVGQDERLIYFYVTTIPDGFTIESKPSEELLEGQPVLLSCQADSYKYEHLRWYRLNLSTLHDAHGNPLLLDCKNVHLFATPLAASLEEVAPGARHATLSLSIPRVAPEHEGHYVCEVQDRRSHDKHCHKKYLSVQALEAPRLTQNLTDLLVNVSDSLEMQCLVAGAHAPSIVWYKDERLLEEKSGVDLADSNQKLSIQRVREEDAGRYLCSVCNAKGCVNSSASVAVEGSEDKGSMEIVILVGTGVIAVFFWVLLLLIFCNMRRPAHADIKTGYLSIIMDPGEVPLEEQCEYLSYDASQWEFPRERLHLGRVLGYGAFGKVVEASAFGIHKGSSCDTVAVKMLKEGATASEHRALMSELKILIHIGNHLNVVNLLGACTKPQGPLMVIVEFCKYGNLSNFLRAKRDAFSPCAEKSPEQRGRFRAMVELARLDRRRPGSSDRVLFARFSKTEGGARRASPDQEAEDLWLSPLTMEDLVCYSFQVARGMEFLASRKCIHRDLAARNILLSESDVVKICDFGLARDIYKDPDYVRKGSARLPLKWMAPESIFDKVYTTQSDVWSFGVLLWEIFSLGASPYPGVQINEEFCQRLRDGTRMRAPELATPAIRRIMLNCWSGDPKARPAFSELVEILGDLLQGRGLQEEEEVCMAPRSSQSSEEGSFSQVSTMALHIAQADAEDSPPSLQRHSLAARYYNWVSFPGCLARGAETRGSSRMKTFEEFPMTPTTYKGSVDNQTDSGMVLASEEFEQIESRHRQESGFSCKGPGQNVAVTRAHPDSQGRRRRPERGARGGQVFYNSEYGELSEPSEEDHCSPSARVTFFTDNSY
Procedure: as §1

VEGFR2 = VEGFR2 (Homo sapiens, UniProt P35968); experiment: Enzyme inhibition activity, VEGFR2; assay type: biochemical
Procedure: as §1

PDK1 = target: T2, PDK1 (Homo sapiens, UniProt O15530); experiment: Enzyme inhibition activity, PDK1; assay type: biochemical
T2 sequence (O15530 1-556): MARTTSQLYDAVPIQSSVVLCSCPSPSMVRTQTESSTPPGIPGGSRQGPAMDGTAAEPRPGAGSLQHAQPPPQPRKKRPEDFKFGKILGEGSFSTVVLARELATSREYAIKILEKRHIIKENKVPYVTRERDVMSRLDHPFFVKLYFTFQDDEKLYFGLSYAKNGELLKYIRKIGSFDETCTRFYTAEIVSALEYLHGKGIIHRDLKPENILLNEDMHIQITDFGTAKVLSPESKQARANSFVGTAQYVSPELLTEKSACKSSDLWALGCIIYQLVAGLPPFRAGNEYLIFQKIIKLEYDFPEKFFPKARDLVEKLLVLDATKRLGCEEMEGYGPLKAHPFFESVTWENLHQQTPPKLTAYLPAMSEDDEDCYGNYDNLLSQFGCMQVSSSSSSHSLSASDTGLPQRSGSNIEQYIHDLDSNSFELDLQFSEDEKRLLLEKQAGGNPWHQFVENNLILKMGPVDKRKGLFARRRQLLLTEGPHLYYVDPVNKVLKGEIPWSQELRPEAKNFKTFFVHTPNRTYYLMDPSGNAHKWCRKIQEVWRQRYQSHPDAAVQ
Procedure: as §1

GSK3beta = GSK3beta (Homo sapiens, UniProt P49841); experiment: Enzyme inhibition activity, GSK3beta; assay type: biochemical
GSK3beta, sequence (P49841 whole entry, species assumed): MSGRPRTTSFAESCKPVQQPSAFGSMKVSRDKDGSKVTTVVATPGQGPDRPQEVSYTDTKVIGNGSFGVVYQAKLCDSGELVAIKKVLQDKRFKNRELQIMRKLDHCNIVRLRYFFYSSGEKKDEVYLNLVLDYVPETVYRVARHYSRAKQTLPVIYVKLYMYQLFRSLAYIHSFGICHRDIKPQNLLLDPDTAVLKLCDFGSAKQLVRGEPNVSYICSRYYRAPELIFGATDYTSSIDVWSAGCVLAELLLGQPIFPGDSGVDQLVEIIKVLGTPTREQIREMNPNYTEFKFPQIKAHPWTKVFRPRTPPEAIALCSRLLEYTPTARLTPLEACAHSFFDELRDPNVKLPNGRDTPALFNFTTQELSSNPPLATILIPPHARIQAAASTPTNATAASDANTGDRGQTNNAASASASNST
Procedure: as §1

AUR1 = AUR1 (Homo sapiens, UniProt Q96GD4); experiment: Enzyme inhibition activity, AUR1; assay type: biochemical
AUR1, sequence (Q96GD4 whole entry): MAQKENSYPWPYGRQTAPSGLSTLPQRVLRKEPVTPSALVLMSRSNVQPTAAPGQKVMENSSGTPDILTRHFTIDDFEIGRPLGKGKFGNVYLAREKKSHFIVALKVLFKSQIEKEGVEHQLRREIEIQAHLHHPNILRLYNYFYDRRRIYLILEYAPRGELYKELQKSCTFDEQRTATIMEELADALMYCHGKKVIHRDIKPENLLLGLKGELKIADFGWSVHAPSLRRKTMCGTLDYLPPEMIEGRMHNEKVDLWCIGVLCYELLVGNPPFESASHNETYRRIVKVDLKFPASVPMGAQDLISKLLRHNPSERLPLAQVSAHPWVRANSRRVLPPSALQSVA
Procedure: as §1

FGFR1 = FGFR1 (Homo sapiens, UniProt P11362); experiment: Enzyme inhibition activity, FGFR1; assay type: biochemical
FGFR1, sequence (P11362 22-822, species assumed): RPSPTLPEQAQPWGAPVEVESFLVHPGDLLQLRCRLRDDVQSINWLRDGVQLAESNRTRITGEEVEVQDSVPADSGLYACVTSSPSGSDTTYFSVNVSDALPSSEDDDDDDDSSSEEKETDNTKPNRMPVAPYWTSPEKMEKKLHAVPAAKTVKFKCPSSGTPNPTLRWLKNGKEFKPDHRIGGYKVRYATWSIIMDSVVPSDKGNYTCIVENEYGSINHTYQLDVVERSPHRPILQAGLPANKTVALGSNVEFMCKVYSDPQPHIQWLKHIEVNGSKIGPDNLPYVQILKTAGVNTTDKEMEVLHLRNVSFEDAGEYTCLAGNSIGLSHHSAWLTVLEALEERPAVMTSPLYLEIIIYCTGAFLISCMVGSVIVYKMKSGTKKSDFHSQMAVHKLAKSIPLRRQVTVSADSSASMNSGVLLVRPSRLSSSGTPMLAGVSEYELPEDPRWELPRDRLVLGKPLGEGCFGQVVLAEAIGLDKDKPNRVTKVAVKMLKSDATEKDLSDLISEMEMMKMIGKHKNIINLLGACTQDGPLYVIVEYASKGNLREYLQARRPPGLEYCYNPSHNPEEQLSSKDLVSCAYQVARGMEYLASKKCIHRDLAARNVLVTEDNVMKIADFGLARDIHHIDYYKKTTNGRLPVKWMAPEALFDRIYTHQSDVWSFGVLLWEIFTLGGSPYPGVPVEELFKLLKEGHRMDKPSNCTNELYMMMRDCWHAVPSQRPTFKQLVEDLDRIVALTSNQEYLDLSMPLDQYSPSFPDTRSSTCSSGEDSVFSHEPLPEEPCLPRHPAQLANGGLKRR
Procedure: as §1

CDK2/CYCA = target: T3, CDK2/CYCA (Homo sapiens, UniProt P24941); experiment: Inhibition assay of Cdk2/Cyclin A activity; assay type: biochemical; conditions: Enzyme CDK2/CYCA
T3 construct: made in house
Procedure: Inhibition assay of Cdk2/Cyclin A activity
1.5 µM histone H1 substrate, 25 µM ATP (0.2 µCi P33γ-ATP), 30 ng of baculovirus co-expressed Cdk2/Cyclin A, 10 µM inhibitor in a final volume of 100 µl buffer (TRIS HCl 10 mM pH 7.5, MgCl2 10 mM, 7.5 mM DTT) were added to each well of a 96 U bottom well plate. After 10 min at 37 °C incubation, reaction was stopped by 20 µl EDTA 120 mM.
100 µl were transferred from each well from the kinase reaction to MultiScreen plate, to allow substrate binding to phosphocellulose filter. Plates were then washed 3 times with 150 µl/well PBS Ca^++/Mg^++ free and filtered by MultiScreen filtration system.
Filters were allowed to dry at 37°C, then 100 µl/well scintillant were added and 33P labeled histone H1 was detected by radioactivity counting in the Top-Count instrument. Results: data were analyzed and expressed as % inhibition referred to total activity of enzyme (=100%).
All compounds showing inhibition ≥ 50 % were further analyzed in order to study and define potency (IC50) as well as the kinetic-profile of inhibitor through Ki calculation. IC50 determination: the protocol used was the same described above, where inhibitors were tested at different concentrations ranging from 0.0045 to 10 µM. […]

JAK3 = target: T4, JAK3 (Homo sapiens, UniProt P52333); experiment: Enzyme inhibition activity, JAK3; assay type: biochemical
T4 sequence (P52333 1-1124): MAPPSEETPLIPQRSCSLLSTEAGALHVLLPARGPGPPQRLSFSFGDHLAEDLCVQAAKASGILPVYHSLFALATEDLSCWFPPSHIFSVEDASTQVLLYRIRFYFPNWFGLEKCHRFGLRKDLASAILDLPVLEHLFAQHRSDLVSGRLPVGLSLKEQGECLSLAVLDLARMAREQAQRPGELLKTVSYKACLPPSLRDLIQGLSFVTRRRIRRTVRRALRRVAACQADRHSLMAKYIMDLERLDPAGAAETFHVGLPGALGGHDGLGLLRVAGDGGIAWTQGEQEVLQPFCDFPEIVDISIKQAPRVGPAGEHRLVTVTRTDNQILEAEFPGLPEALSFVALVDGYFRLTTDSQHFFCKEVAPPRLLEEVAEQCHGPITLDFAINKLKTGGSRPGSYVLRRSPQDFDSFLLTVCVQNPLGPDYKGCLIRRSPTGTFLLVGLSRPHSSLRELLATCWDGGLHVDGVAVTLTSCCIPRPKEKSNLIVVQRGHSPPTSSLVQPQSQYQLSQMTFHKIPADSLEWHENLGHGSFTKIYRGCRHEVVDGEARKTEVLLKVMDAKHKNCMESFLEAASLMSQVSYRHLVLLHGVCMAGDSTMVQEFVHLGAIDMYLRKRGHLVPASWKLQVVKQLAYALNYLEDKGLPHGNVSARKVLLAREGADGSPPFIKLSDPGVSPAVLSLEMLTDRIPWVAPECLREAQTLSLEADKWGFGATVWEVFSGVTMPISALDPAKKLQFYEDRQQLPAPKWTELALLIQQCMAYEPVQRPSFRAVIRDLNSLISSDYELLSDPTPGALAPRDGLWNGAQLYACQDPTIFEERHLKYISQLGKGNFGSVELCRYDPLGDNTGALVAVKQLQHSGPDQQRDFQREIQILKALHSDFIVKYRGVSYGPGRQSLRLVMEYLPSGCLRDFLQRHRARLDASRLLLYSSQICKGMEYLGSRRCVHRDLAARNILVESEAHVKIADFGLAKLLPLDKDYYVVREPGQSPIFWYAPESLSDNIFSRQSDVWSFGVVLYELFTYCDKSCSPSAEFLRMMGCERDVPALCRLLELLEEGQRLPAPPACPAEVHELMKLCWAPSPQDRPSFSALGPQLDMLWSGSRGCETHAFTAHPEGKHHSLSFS
Procedure: as §1

RET = RET (Homo sapiens, UniProt P07949); experiment: Enzyme inhibition activity, RET; assay type: biochemical
RET, sequence (P07949 29-1114, species assumed): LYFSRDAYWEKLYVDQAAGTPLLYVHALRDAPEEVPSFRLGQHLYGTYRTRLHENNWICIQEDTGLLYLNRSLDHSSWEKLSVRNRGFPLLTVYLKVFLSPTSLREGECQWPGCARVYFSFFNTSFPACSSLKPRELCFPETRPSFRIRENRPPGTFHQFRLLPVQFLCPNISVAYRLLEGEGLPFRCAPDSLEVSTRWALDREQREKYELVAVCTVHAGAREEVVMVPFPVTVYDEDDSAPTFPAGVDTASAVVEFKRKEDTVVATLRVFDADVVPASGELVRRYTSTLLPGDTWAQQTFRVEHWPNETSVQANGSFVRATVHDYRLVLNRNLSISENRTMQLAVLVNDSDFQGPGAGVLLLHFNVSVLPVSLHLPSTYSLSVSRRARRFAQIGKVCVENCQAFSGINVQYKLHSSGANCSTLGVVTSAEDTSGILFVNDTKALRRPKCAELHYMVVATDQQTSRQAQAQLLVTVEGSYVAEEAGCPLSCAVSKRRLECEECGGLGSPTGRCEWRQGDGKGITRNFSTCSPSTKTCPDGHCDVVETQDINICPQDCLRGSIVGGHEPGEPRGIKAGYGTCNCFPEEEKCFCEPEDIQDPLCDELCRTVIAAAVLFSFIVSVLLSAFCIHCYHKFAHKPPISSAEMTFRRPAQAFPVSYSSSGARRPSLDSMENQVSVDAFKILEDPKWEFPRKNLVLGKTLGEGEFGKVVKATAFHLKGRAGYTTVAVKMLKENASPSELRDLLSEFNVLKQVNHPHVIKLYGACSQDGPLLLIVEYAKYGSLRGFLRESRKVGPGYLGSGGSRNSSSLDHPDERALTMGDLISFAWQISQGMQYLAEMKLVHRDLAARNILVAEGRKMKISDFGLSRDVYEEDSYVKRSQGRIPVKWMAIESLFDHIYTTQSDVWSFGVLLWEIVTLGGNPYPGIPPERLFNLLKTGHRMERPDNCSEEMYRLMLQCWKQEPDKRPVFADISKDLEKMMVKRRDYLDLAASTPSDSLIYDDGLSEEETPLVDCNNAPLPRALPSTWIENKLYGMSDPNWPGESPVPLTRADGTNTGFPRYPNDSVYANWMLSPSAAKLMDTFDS
Procedure: as §1

pIC50 (PKAalpha): 6.06
pIC50 (AUR2): 7.29
pIC50 (VEGFR3): 6.23
pIC50 (VEGFR2): 5.72
pIC50 (PDK1): 5.88
pIC50 (GSK3beta): 5.72
pIC50 (AUR1): 6.37
pIC50 (FGFR1): 5.60
pIC50 (CDK2/CYCA): 5.77
pIC50 (JAK3): 5.75
pIC50 (RET): 5.97
Structure (SMILES): CCCCC(C)C(=O)Nc1ccc2[nH]c3c(=O)[nH]cc(CC(=O)NC)c3c2c1 (stereo not drawn) [Compound XIIIh, 2-Methyl-N-{4-[2-(methylamino)-2-oxoethyl]-1-oxo-2,9-dihydro-1H-beta-carbolin-6-yl}hexanamide]
pIC50 (A2780): 5.44
